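The compound was tested at five concentrations on cells cultured in 96-well plates, with a 48-hour exposure period. GI50 is the concentration that inhibits growth by half. Definition used: TGI = concentration required for complete inhibition of growth.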
Experiments:
Test in all cases: inhibition of tumour cell growth, NCI panel, 48 h
[1] = tested on: T-47D breast
[2] = tested on: KM12 colon
[3] = tested on: SF-539 CNS
[4] = tested on: RPMI-8226 leukemia
[5] = tested on: HCC-2998 colon
[6] = tested on: 786-0 renal
[7] = tested on: SK-MEL-28 melanoma
[8] = tested on: UACC-62 melanoma
[9] = tested on: NCI/ADR-RES ovarian
[10] = tested on: HT29 colon
[11] = tested on: SF-295 CNS
[12] = tested on: NCI-H522 lung
[13] = tested on: MALME-3M melanoma
[14] = tested on: HCT-15 colon
[15] = tested on: MOLT-4 leukemia
[16] = tested on: A549 NSCLC
[17] = tested on: SK-MEL-2 melanoma
[18] = tested on: COLO 205 colon
[19] = tested on: HCT-116 colon
[20] = tested on: SN12C renal
[21] = tested on: U251 CNS
[22] = tested on: A498 renal
[23] = tested on: SNB-75 CNS
[24] = tested on: TK-10 renal
[25] = tested on: OVCAR-5 ovarian
[26] = tested on: NCI-H460 lung
[27] = tested on: ACHN renal
[28] = tested on: MDA-MB-231 breast
[29] = tested on: MCF7 breast
[30] = tested on: NCI-H226 lung
[31] = tested on: OVCAR-3 ovarian
[32] = tested on: IGROV1 ovarian
[33] = tested on: NCI-H23 lung
[34] = tested on: SK-OV-3 ovarian
[35] = tested on: HL-60(TB) leukemia
[36] = tested on: M14 melanoma
[37] = tested on: RXF 393 renal
[38] = tested on: HOP-62 NSCLC
[39] = tested on: MDA-MB-435
[40] = tested on: PC-3 prostate
[41] = tested on: SF-268 CNS
[42] = tested on: SR leukemia
[43] = tested on: SNB-19 CNS
[44] = tested on: OVCAR-4 ovarian
[45] = tested on: BT-549 breast
[46] = tested on: SW-620 colon
[47] = tested on: CAKI-1 renal
[48] = tested on: OVCAR-8 ovarian
[49] = tested on: UO-31 renal
[50] = tested on: CCRF-CEM leukemia
[51] = tested on: HS 578T breast
[52] = tested on: UACC-257 melanoma
[53] = tested on: K-562 leukemia
[54] = tested on: DU-145 prostate
[55] = tested on: EKVX NSCLC
[56] = tested on: LOX IMVI melanoma
[57] = tested on: SK-MEL-5 melanoma

NC(=S)N/N=C/c1ccc(OC(=O)COc2ccccc2)cn1
GI50 [1]: 7.45 µM
TGI [1]: > 100 µM
GI50 [2]: 3.16 µM
TGI [2]: > 100 µM
GI50 [3]: 2.94 µM
TGI [3]: 10.9 µM
GI50 [4]: 7.47 µM
TGI [4]: > 100 µM
GI50 [5]: 8.37 µM
TGI [5]: > 100 µM
GI50 [6]: 3.89 µM
TGI [6]: > 100 µM
GI50 [7]: 44.4 µM
TGI [7]: > 100 µM
GI50 [8]: 4.67 µM
TGI [8]: > 100 µM
GI50 [9]: 4.14 µM
TGI [9]: > 100 µM
GI50 [10]: 39 µM
TGI [10]: > 100 µM
GI50 [11]: 20.7 µM
TGI [11]: > 100 µM
GI50 [12]: 8.6 µM
TGI [12]: 57.2 µM
GI50 [13]: 11.2 µM
TGI [13]: > 100 µM
GI50 [14]: 20.2 µM
TGI [14]: > 100 µM
GI50 [15]: 2.53 µM
TGI [15]: > 100 µM
GI50 [16]: 30 µM
TGI [16]: > 100 µM
GI50 [17]: > 100 µM
TGI [17]: > 100 µM
GI50 [18]: 33.3 µM
TGI [18]: > 100 µM
GI50 [19]: 5.98 µM
TGI [19]: > 100 µM
GI50 [20]: 5.3 µM
TGI [20]: > 100 µM
GI50 [21]: 4.15 µM
TGI [21]: > 100 µM
GI50 [22]: 14.8 µM
TGI [22]: 81 µM
GI50 [23]: 10.4 µM
TGI [23]: > 100 µM
GI50 [24]: > 100 µM
TGI [24]: > 100 µM
GI50 [25]: 49.7 µM
TGI [25]: > 100 µM
GI50 [26]: 5.04 µM
TGI [26]: 63.4 µM
GI50 [27]: 3.65 µM
TGI [27]: > 100 µM
GI50 [28]: 8.27 µM
TGI [28]: > 100 µM
GI50 [29]: 2.76 µM
TGI [29]: > 100 µM
GI50 [30]: 20.3 µM
TGI [30]: 64 µM
GI50 [31]: 2.17 µM
TGI [31]: > 100 µM
GI50 [32]: 9.39 µM
TGI [32]: > 100 µM
GI50 [33]: 4.49 µM
TGI [33]: > 100 µM
GI50 [34]: 40.9 µM
TGI [34]: > 100 µM
GI50 [35]: 1.18 µM
TGI [35]: > 100 µM
GI50 [36]: 3.57 µM
TGI [36]: 12.1 µM
GI50 [37]: 5.34 µM
TGI [37]: > 100 µM
GI50 [38]: 11.1 µM
TGI [38]: 80.8 µM
GI50 [39]: 10.9 µM
TGI [39]: > 100 µM
GI50 [40]: 5.34 µM
TGI [40]: > 100 µM
GI50 [41]: 2.95 µM
TGI [41]: > 100 µM
GI50 [42]: 0.596 µM
TGI [42]: > 100 µM
GI50 [43]: 28.5 µM
TGI [43]: > 100 µM
GI50 [44]: 3.39 µM
TGI [44]: > 100 µM
GI50 [45]: 26.4 µM
TGI [45]: > 100 µM
GI50 [46]: 5.02 µM
TGI [46]: > 100 µM
GI50 [47]: 4.01 µM
TGI [47]: > 100 µM
GI50 [48]: 3.26 µM
TGI [48]: > 100 µM
GI50 [49]: 3.91 µM
TGI [49]: 39.2 µM
GI50 [50]: 1.58 µM
TGI [50]: > 100 µM
GI50 [51]: 68.4 µM
TGI [51]: > 100 µM
GI50 [52]: 14.7 µM
TGI [52]: 88.9 µM
GI50 [53]: 2.88 µM
TGI [53]: > 100 µM
GI50 [54]: 2.72 µM
TGI [54]: 8.96 µM
GI50 [55]: 40 µM
TGI [55]: > 100 µM
GI50 [56]: 3.48 µM
TGI [56]: > 100 µM
GI50 [57]: 3.12 µM
TGI [57]: 29.1 µM
